Source: patent US7214669B2, “Tetracycline derivatives and methods of use thereof” (Tetragenex Pharmaceuticals, Inc., priority 2001, dated 2007)
pIC50: −log10 of the molar value. Several values for one entry are separate records, joined by “and”; a condition that tells them apart may be missing. Identical values can stand only once.

What was measured:
[1] = tested on: MAT LyLu tumor; assay: Dunning MAT LyLu tumor model, survival; type: in vivo, Copenhagen rats; settings: for Surviving Number: 10/group, dosed by gavage
Procedure: (§2) Fresh dosing solutions containing 10 mg/ml of each test article in 2% carboxymethylcellulose were prepared daily and used in the testing.
(§3) Three groups of animals (10/group) were dosed by gavage with either vehicle, or one of the two analogs daily for three weeks, and then three times per week until death or sacrifice. Dosing was begun seven days prior to implantation of the MAT LyLu tumor cells by tail vein injection. Approximately 0.1 ml of tumor cell suspension was injected into one of the lateral tail veins. The dose to be chosen was based on two factors: (1) efficacy and (2) morbidity associated with the analog, if any.

[2] = target: Human recombinant MMP14 (Homo sapiens, UniProt P50281); assay: MMP14 (MTI-MMP) inhibition, 14C collagen release; type: biochemical; settings: 35° C., 15 hours; read-out: MMP-14 inhibitory activity, IC50
Procedure: Protocol for Measuring MMP14 (MTI-MMP) Inhibition by Tetracycline Derivatives
MMP14 activity was determined by the release of soluble ^14C labelled collagen fragments from ^14C acetylated rat skin type I collagen (Methods in Enzymology 80 711, 1981).
• 100 μg ^14C labelled collagen (5–6000 dpm) • 50 mM Tris HCL pH 7.9 • 15 mM CaCl2 0.02% azide • Human recombinant MMP14 50–100 nM • ±Tetracycline (up to 1 mM) in a total volume of 300 μl.
Incubations were at 35° C. for 15 hours. Uncleaved collagen fibrils (which form within the first 10 minutes) were removed by centrifugation at 10,000 g 4° C. 10 minutes 200 μl supernatant were counted in Packard Opti Phase Supermix scintillation fluid using a scintillation counter. Only data derived from within the linear part of the assay (10–70% lysis of the collagen) were utilized. Based on percentage inhibition of the activity of MMP1 alone by a range of concentrations of each sample, the IC50 value for each tetracycline was calculated.

[3] = Dunning MAT LyLu tumor model, weekly body weight; type: in vivo; settings: compared to the control group
Procedure: as §2, §3

[4] = target: T1, Human recombinant MMP7 (Homo sapiens, UniProt P09237); assay: MMP7 (Matrilysin) inhibition, 14C casein release; type: biochemical; settings: 37° C., 16 hours; read-out: MMP-7 inhibitory activity, IC50
T1 sequence (P09237 95-267): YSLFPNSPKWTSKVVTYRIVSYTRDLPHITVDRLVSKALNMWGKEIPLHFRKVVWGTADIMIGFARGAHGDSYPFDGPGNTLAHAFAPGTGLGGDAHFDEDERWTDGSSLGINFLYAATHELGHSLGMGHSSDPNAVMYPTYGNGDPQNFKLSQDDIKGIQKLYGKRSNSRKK
Procedure: MMP7 activity was determined by the release of trichloracetic acid, TCA, soluble fragments from ^14C acetylated β casein (Sigma) as described in Methods in Enzymology 248, 451 (1995).
• 100 μg ^14C casein (7000 dpm) • 50 mM Tris HCl, pH 7.9 • 15 mM CaCl2, 0.02% azide • Human recombinant MMP7, 1.5 nM • ±tetracycline (up to 1 mM) in a total volume of 250 μl.
Incubations were at 37° C. for 16 hours. The incubation was stopped by the addition of 500 μl cold 18% TCA and standing on ice for 15 minutes. TCA precipitates were removed by centrifugation at 10,000 g for 10 minutes at 4° C., and 200 μl supernatant was taken for scintillation counting. Only data derived from within the linear part of the assay (10–60% lysis) were utilized. The percentage inhibition of MMP7 by each concentration of the candidate tetracycline were plotted to derive the IC50 value.

[5] = tested on: PC-3 ML human prostate cancer cells; assay: Membrane Invasion Culture System (MICS) chemo-invasion assay; type: cell-based; settings: 10 ug/mL; 24 hours; + = increased invasiveness
Outline: (§1)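 Fifty thousand cells were seeded above a 35 μm laminin/collagen IV/gelatin barrier on a 10 μm-pore filter, with serum-free RPMI plus 50% fibroblast-conditioned medium below as chemoattractant. Compound at 1, 10 or 25 μg/ml, or DMSO vehicle, was present for 24 h. Invaded cells were collected, Wright-stained and counted over 5 fields.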

[6] = tested on: RPMI-8226 human myeloma cancer cells; assay: as above; type: cell-based; settings: 24 hours, + = increased invasiveness
Outline: as §1

[7] = tested on: MDA-MB-231 human breast cancer cells; assay: as above; type: cell-based; settings: 10 ug/mL; 24 hours; + = increased invasiveness
Outline: as §1

[8] = tested on: C8161 human melanoma cells; assay: as above; type: cell-based; settings: 25 ug/mL; 24 hours; + = increased invasiveness
Outline: as §1

[9] = tested on: Arp-1 human myeloma cancer cells; assay: as above; type: cell-based; settings: 24 hours, + = increased invasiveness
Outline: as §1

[10] = tested on: Ark human myeloma cancer cells; assay: as above; type: cell-based; settings: 1 ug/mL; 24 hours; + = increased invasiveness
Outline: as §1

[11] = target: Human recombinant MMP9 (Homo sapiens, UniProt P14780); assay: MMP9 (Gelatinase B) inhibition, 14C gelatin release; type: biochemical; settings: 37° C., 16 hours; read-out: MMP-9 inhibitory activity, IC50
Human recombinant MMP9, sequence (P14780 94-707): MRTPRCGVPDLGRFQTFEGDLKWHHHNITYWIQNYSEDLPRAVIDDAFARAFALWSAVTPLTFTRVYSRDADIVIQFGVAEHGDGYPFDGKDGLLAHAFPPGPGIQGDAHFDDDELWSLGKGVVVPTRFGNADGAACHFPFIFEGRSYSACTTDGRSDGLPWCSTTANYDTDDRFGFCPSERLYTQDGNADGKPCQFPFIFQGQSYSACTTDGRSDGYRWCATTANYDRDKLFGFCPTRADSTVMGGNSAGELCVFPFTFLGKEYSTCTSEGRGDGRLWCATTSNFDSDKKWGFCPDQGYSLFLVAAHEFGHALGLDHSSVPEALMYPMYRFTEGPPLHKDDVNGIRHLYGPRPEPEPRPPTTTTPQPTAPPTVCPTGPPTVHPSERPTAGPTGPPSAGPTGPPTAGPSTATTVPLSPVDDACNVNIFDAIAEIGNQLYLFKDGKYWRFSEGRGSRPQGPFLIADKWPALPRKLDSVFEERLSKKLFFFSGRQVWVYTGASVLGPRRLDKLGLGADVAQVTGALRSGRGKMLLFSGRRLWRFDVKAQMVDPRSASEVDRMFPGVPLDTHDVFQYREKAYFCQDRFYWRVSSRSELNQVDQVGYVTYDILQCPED

[12] = target: T2, MMP2 (Gelatinase A) (Homo sapiens, UniProt P08253); assay: MMP2 (Gelatinase A) inhibition, 14C gelatin release; type: biochemical; settings: 37° C., 16 hours; read-out: MMP-2 inhibitory activity, IC50
T2 sequence (P08253 110-660): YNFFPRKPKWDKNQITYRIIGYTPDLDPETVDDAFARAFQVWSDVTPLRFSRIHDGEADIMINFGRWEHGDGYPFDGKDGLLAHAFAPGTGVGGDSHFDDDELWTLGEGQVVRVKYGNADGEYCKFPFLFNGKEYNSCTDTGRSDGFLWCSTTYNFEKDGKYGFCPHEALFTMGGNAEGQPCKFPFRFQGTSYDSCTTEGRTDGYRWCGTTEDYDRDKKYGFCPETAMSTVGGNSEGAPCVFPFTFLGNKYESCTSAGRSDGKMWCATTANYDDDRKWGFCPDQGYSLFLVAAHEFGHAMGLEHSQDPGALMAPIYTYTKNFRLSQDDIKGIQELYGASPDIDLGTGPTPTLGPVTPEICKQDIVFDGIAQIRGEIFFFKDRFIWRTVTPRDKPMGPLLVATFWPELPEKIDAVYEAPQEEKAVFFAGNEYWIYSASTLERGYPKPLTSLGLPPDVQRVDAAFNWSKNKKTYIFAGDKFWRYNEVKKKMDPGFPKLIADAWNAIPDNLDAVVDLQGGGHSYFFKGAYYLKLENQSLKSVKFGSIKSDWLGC
Procedure: Protocol for Measuring MMP2 (Gelatinase A) Inhibition
MMP2 activity was determined by the release of trichloracetic acid, TCA, soluble fragments from ^14C acetylated rat skin type I gelatin (Methods in Enzymology 248, 470, 1995. Biochem. J. 195, 1981)
• 100 μg ^14C labelled gelatin (type I collagen denatured 60° C. 20 min) • 50 mM Tris HCl pH 7.9 • 15 mM CaCl2, 0.02% azide • Human recombinant MMP1, 0.1–0.5 nM • ±Tetracycline (up to 1 MM) in a total volume of 250 μl.
Incubations were set at 37° C. for 16 hours. The reaction was stopped by cooling the incubations and addition of 50 μl cold 90% (w/v) trichloracetic acid with careful mixing. TCA precipitation was allowed to proceed for 15 minutes at 4° C. prior to cetrifugation at 10,000 g for 10 minutes at 4° C. 200 μl of the TCA supernatant was taken for the determination of radioactive content by scintillation counting (Packard Opti Phase Supermix scintillation fluid). Only data derived from within the linear part of the assay (10–70% lysis) were utilized. The percentage inhibition of MMP2 by each tetracycline concentration was plotted to derive the IC50 value, using linear regression analysis.

[13] = target: T3, Human recombinant MMP1 (Homo sapiens, UniProt P03956); assay: MMP1 (Collagenase-1) inhibition, 14C collagen release; type: biochemical; settings: 35° C., 5 hours; read-out: MMP-1 inhibitory activity, IC50
T3 sequence (P03956 100-469): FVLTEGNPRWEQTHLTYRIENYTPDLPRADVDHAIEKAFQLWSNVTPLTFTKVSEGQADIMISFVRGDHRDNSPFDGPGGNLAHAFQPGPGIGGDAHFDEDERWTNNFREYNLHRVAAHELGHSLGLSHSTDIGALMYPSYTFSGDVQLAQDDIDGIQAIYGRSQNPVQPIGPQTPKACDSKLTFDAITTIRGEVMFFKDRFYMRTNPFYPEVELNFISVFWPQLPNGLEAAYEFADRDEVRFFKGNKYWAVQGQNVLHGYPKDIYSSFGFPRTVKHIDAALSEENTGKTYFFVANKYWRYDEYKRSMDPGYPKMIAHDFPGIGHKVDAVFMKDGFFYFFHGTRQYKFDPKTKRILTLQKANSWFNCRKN

[14] = target: Human recombinant MMP3 (Homo sapiens, UniProt P08254); assay: MMP3 (Stromelysin 1) inhibition, 14C casein release; type: biochemical; settings: 37° C., 16 hours; read-out: MMP-3 inhibitory activity, IC50
Human recombinant MMP3, sequence (P08254 100-477): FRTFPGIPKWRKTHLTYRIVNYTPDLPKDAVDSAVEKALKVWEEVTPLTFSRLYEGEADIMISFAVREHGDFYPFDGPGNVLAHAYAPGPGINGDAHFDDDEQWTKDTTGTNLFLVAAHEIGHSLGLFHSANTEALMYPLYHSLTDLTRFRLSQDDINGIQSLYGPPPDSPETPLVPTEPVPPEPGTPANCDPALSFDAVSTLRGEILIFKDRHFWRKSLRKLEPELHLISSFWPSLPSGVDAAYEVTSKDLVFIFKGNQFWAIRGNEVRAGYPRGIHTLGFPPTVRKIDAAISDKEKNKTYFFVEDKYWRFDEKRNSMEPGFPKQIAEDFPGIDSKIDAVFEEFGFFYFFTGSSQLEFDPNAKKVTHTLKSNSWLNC
Procedure: Protocol for Measuring MMP3 (Stromelysin 1) Inhibition
• 100 μg ^14C casein (7000 dpm) • 50 mM Tris HCl, pH 7.9 • 15 mM CaCl2, 0.02% azide • Human recombinant MMP3, 0.25–1.0 nM • ±tetracycline (up to 1 mM) in a total volume of 250 μl.
Incubations were at 37° C. for 16 hours. The reaction was stopped by the addition of 500 μl cold 18% TCA and standing on ice for 15 minutes. TCA precipitates were removed by centrifugation at 10,000 g for 10 minutes at 4° C. and 200 μl supernatant was taken for scintillation counting. Only data derived from within the linear part of the assay (10–60% lysis) were utilized. The percentage inhibition of MMP3 by each concentration of the candidate tetracycline was plotted to derive the IC50 value, using linear regression analysis.

For `CC1c2ccc([N+](=O)[O-])c(O)c2C(=O)C2=C(O)C3(O)C(=O)C(C(N)=O)=C(O)C(N(C)C)C3C(O)C21` (centres unmarked) [Compound 1, 9-nitro-6-deoxy-5-hydroxytetracycline H2SO4], the “Surviving Number” value ([1]; 14 days post tumor implantation) was 8, the “Surviving Number” value ([1]; 17 days post tumor implantation) was 8 and the “Surviving Number” value ([1]; 24 days post tumor implantation) was 8. The “Surviving Number” value ([1]; 27 days post tumor implantation) was 8, the “Surviving Number” value ([1]; 28 days post tumor implantation) was 8 and the “Surviving Number” value ([1]; 29 days post tumor implantation) was 6. For the same molecule, the “Surviving Number” value ([1]; 30 days post tumor implantation) was 4, the “Surviving Number” value ([1]; 34 days post tumor implantation) was 4 and the “Surviving Number” value ([1]; 42 days post tumor implantation) was 4. The “surviving number after tumor implantation (in words)” value ([1]; compared to the control group) was “marked increase in surviving number”, the pIC50 [2] was 4.07 and the body weight changes [3] was “indistinguishable body weight changes”. For the same molecule, the pIC50 [4] was 3.09, the “percent inhibition, PC-3 ML (Prostrate)” value [5] was 47^B percent and 24^B percent and the “percent inhibition, RPMI-8226 (Multiple Myeloma)” value ([6]; 1 ug/mL) was 20% and 21^B percent. For the same molecule, the “percent inhibition, RPMI-8226 (Multiple Myeloma)” value ([6]; 25 ug/mL) was 15% and 29^B percent, the “percent inhibition, MDA-MB-231 (Breast)” value [7] was 20^B percent and 25^B percent and the “percent inhibition, C8161 (Melanoma)” value [8] was 35^B percent and 56^B percent. The “percent inhibition, ARP-1” value ([9]; 1 ug/mL) was “+9%”, the “percent inhibition, ARP-1” value ([9]; 10 ug/mL) was “+13%” and the “percent inhibition, ARP-1” value ([9]; 25 ug/mL) was 1%. The “percent inhibition, ARK” value [10] was 9% and 13%, the pIC50 [11] was 4.37 and the pIC50 [12] was under 3.15. It also gave a pIC50 [13] of 3.57 and a pIC50 [14] of 3.59.
